Source: PubChem BioAssay AID200 (DTP/NCI, 2004)
Several values for one entry are separate records, joined by “and”; a condition that tells them apart may be missing. Equal entries are not always repeated. Inconclusive results and toxic doses are left out. Where a SMILES comes first, the peptide text is derived from it. [ ]: non-standard residue; d: D form. The star is where a group is joined. Cbz = O=C(OCc1ccccc1)*; Nva = CCC[CH](N)C(=O)O

System: B6C3F1 mice, B16 melanoma ip, median survival T/C
Test: NCI In Vivo Anticancer Drug Screen. Data for tumor model B16 Melanoma (intraperitoneal) in B6C3F1 mice
Details: endpoint: median survival time, higher = longer survival
Method in brief: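 Readout: survival or tumor size in treated mice relative to vehicle controls (T/C). Model uses transplantable tumors grown in mice.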

[1] = dose: 25.0 mg/kg/injection, schedule: Q01DX009 (ip), vehicle: saline with Tween-80
[2] = dose: 50.0 mg/kg/injection, schedule: Q01DX009 (ip), vehicle: saline with Tween-80
[3] = dose: 100.0 mg/kg/injection, schedule: Q01DX009 (ip), vehicle: saline with Tween-80
[4] = dose: 200.0 mg/kg/injection, schedule: Q01DX009 (ip), vehicle: saline with Tween-80
[5] = dose: 3.13 mg/kg/injection, schedule: Q01DX009 (ip), vehicle: saline
[6] = dose: 6.25 mg/kg/injection, schedule: Q01DX009 (ip), vehicle: saline
[7] = dose: 12.5 mg/kg/injection, schedule: Q01DX009 (ip), vehicle: saline
[8] = dose: 25.0 mg/kg/injection, schedule: Q01DX009 (ip), vehicle: saline
[9] = dose: 12.5 mg/kg/injection, schedule: Q01DX009 (ip), vehicle: saline with Tween-80
[10] = dose: 1.56 mg/kg/injection, schedule: Q01DX009 (ip), vehicle: saline
[11] = dose: 3.12 mg/kg/injection, schedule: Q01DX009 (ip), vehicle: saline
[12] = dose: 100.0 mg/kg/injection, schedule: Q01DX009 (ip), vehicle: Klucel (hydroxypropylcellulose) (HPC)
[13] = dose: 25.0 mg/kg/injection, schedule: Q01DX009 (ip), vehicle: Klucel (hydroxypropylcellulose) (HPC)
[14] = dose: 50.0 mg/kg/injection, schedule: Q01DX009 (ip), vehicle: Klucel (hydroxypropylcellulose) (HPC)

Nc1cc(Cl)c2[nH]cnc2n1
T/C (dose: 6.25 mg/kg/injection, schedule: Q01DX009 (ip), vehicle: water): 102 % of control | T/C (dose: 12.5 mg/kg/injection, schedule: Q01DX009 (ip), vehicle: distilled water + Tween-80): 95 % of control | T/C (dose: 12.5 mg/kg/injection, schedule: Q01DX009 (ip), vehicle: water): 106 % of control | T/C (dose: 25.0 mg/kg/injection, schedule: Q01DX009 (ip), vehicle: distilled water + Tween-80): 88 % of control | T/C (dose: 25.0 mg/kg/injection, schedule: Q01DX009 (ip), vehicle: water): 110 % of control | T/C (dose: 50.0 mg/kg/injection, schedule: Q01DX009 (ip), vehicle: distilled water + Tween-80): 99 % of control | T/C (dose: 50.0 mg/kg/injection, schedule: Q01DX009 (ip), vehicle: water): 98 % of control | T/C (dose: 100.0 mg/kg/injection, schedule: Q01DX009 (ip), vehicle: distilled water + Tween-80): 96 % of control | T/C (dose: 100.0 mg/kg/injection, schedule: Q01DX009 (ip), vehicle: water): 100 % of control | T/C (dose: 200.0 mg/kg/injection, schedule: Q01DX009 (ip), vehicle: water): 100 % of control

CCOC(=O)Nc1cc2c(c(N)n1)N=C(c1ccc3ccccc3c1)CN2
T/C (dose: 0.5 mg/kg/injection, schedule: Q01DX009 (ip), vehicle: saline with Tween-80): 97 % of control | T/C (dose: 1.0 mg/kg/injection, schedule: Q01DX009 (ip), vehicle: saline with Tween-80): 110 % of control | T/C (dose: 1.44 mg/kg/injection, schedule: Q01DX009 (ip), vehicle: saline with Tween-80): 101 % of control | T/C (dose: 2.0 mg/kg/injection, schedule: Q01DX009 (ip), vehicle: saline with Tween-80): 113 % of control and 116 % of control | T/C (dose: 2.4 mg/kg/injection, schedule: Q01DX009 (ip), vehicle: saline with Tween-80): 106 % of control | T/C (dose: 4.0 mg/kg/injection, schedule: Q01DX009 (ip), vehicle: saline with Tween-80): 109 % of control and 122 % of control and 107 % of control | T/C (dose: 6.67 mg/kg/injection, schedule: Q01DX009 (ip), vehicle: saline with Tween-80): 113 % of control | T/C (dose: 8.0 mg/kg/injection, schedule: Q01DX009 (ip), vehicle: saline with Tween-80): 119 % of control | T/C (dose: 11.12 mg/kg/injection, schedule: Q01DX009 (ip), vehicle: saline with Tween-80): 119 % of control

CC(=O)NC(Cc1ccccc1)C(=O)NC(Cc1ccccc1)C(=O)O (stereo not drawn) (Ac-Phe-Phe-OH; configuration not given here)
T/C [1]: 107 % of control | T/C [2]: 100 % of control | T/C [3]: 102 % of control | T/C [4]: 104 % of control | T/C (dose: 400.0 mg/kg/injection, schedule: Q01DX009 (ip), vehicle: saline with Tween-80): 92 % of control

O=CC(CO)CC(C=O)n1cnc2c(=O)[nH]cnc21 (centres undefined)
T/C (dose: 37.5 mg/kg/injection, schedule: Q01DX009 (ip), vehicle: saline): 106 % of control | T/C (dose: 75.0 mg/kg/injection, schedule: Q01DX009 (ip), vehicle: saline): 108 % of control | T/C (dose: 150.0 mg/kg/injection, schedule: Q01DX009 (ip), vehicle: saline): 100 % of control | T/C (dose: 300.0 mg/kg/injection, schedule: Q01DX009 (ip), vehicle: saline): 111 % of control

CCCCCCCCCCCCOCCCOP(=O)([O-])OCC[N+](C)(C)C
T/C [5]: 100 % of control | T/C [6]: 100 % of control | T/C [7]: 100 % of control | T/C [8]: 91 % of control

CS(=O)(=O)c1ncc(Br)cn1
T/C (dose: 3.12 mg/kg/injection, schedule: Q01DX009 (ip), vehicle: saline with Tween-80): 100 % of control | T/C (dose: 3.13 mg/kg/injection, schedule: Q01DX009 (ip), vehicle: saline with Tween-80): 101 % of control | T/C (dose: 6.25 mg/kg/injection, schedule: Q01DX009 (ip), vehicle: saline with Tween-80): 99 % of control and 105 % of control | T/C [9]: 98 % of control and 106 % of control | T/C [1]: 96 % of control and 104 % of control | T/C [2]: 109 % of control and 97 % of control | T/C [3]: 100 % of control and 104 % of control

N=C(N)CCCCCCCCC(=N)N
T/C (dose: 0.78 mg/kg/injection, schedule: Q01DX009 (ip), vehicle: saline): 99 % of control and 102 % of control | T/C [10]: 108 % of control and 112 % of control | T/C [11]: 110 % of control | T/C [5]: 102 % of control | T/C [6]: 118 % of control and 106 % of control | T/C [7]: 112 % of control

CCCC(NC(=O)OCc1ccccc1)C(=O)NC(CC(C)C)C(N)=O (centres undefined) (Cbz-[Nva]-Leu-NH2; configuration not given here)
T/C [12]: 98 % of control | T/C (dose: 200.0 mg/kg/injection, schedule: Q01DX009 (ip), vehicle: Klucel (hydroxypropylcellulose) (HPC)): 94 % of control | T/C (dose: 400.0 mg/kg/injection, schedule: Q01DX009 (ip), vehicle: Klucel (hydroxypropylcellulose) (HPC)): 97 % of control

S=c1c2[nH]cnc2ncn1CCSC1=NC=NC2=NC=NC21 (centres undefined)
T/C [7]: 98 % of control | T/C [8]: 104 % of control | T/C (dose: 50.0 mg/kg/injection, schedule: Q01DX009 (ip), vehicle: saline): 92 % of control | T/C (dose: 400.0 mg/kg/injection, schedule: Q01DX009 (ip), vehicle: saline): 89 % of control

O=C(CCl)Oc1ccc(-c2ccccc2)cc1Br
T/C [2]: 98 % of control | T/C [3]: 90 % of control | T/C [4]: 87 % of control

O=S(CCCl)CCCl
T/C (dose: 6.25 mg/kg/injection, schedule: Q01DX009 (ip), vehicle: Klucel (hydroxypropylcellulose) (HPC)): 96 % of control and 107 % of control | T/C (dose: 12.5 mg/kg/injection, schedule: Q01DX009 (ip), vehicle: Klucel (hydroxypropylcellulose) (HPC)): 98 % of control and 101 % of control | T/C [13]: 98 % of control and 107 % of control | T/C [14]: 89 % of control and 96 % of control

CCCCCNc1ncnc2c(C)[nH]nc12
T/C [13]: 100 % of control | T/C [14]: 91 % of control | T/C [12]: 86 % of control

Nc1nc(Br)nc2c1ncn2C1CC(O)C(CO)O1 (centres undefined)
T/C (dose: 7.5 mg/kg/injection, schedule: Q03HX009 (ip), vehicle: saline): 96 % of control | T/C (dose: 15.0 mg/kg/injection, schedule: Q03HX009 (ip), vehicle: saline): 96 % of control | T/C (dose: 30.0 mg/kg/injection, schedule: Q03HX009 (ip), vehicle: saline): 93 % of control | T/C (dose: 60.0 mg/kg/injection, schedule: Q03HX009 (ip), vehicle: saline): 101 % of control

Nc1nc(-c2cccc([N+](=O)[O-])c2)c(Br)c(=O)[nH]1
T/C [1]: 115 % of control | T/C [2]: 122 % of control

CC(=O)O[C@@H]1C(=O)C=C(C)[C@@H]2[C@@H](OC(=O)C=C(C)C)[C@H]3OC(=O)C[C@H]4[C@@H](C)[C@@H](O)[C@]5(O)OC[C@]34[C@H]5[C@@]12C
T/C (dose: 1.0 mg/kg/injection, schedule: Q01DX005 (ip), vehicle: distilled water + Tween-80): 163 % of control | T/C (dose: 2.0 mg/kg/injection, schedule: Q01DX005 (ip), vehicle: distilled water + Tween-80): 160 % of control | T/C (dose: 4.0 mg/kg/injection, schedule: Q01DX009 (ip), vehicle: distilled water + Tween-80): 155 % of control | T/C (dose: 8.0 mg/kg/injection, schedule: Q01DX005 (ip), vehicle: distilled water + Tween-80): 156 % of control | T/C (dose: 8.0 mg/kg/injection, schedule: Q01DX009 (ip), vehicle: distilled water + Tween-80): 162 % of control

CC(C)c1cc(C(=O)O)c(O)c(C(C)C)c1.CC(C)c1cc(C(=O)O)c(O)c(C(C)C)c1.[Cu]
T/C (dose: 1.5 mg/kg/injection, schedule: Q01DX009 (ip), vehicle: saline with Tween-80): 92 % of control | T/C (dose: 3.0 mg/kg/injection, schedule: Q01DX009 (ip), vehicle: saline with Tween-80): 96 % of control | T/C (dose: 6.0 mg/kg/injection, schedule: Q01DX009 (ip), vehicle: saline with Tween-80): 97 % of control | T/C (dose: 12.0 mg/kg/injection, schedule: Q01DX009 (ip), vehicle: saline with Tween-80): 106 % of control | T/C [9]: 102 % of control | T/C (dose: 24.0 mg/kg/injection, schedule: Q01DX009 (ip), vehicle: saline with Tween-80): 89 % of control

Cc1c2c(ccc3ccccc32)c[n+]2ccccc12
T/C [10]: 89 % of control | T/C [11]: 103 % of control | T/C [6]: 105 % of control | T/C [7]: 108 % of control | T/C [8]: 108 % of control

[Cl][Pt+2][Cl].[NH-]c1cc2ccccc2cc1[NH-]
T/C (dose: 20.0 mg/kg/injection, schedule: Q01DX009 (ip), vehicle: saline with Tween-80): 89 % of control | T/C (dose: 40.0 mg/kg/injection, schedule: Q01DX009 (ip), vehicle: saline with Tween-80): 104 % of control | T/C (dose: 80.0 mg/kg/injection, schedule: Q01DX009 (ip), vehicle: saline with Tween-80): 98 % of control | T/C (dose: 160.0 mg/kg/injection, schedule: Q01DX009 (ip), vehicle: saline with Tween-80): 99 % of control | T/C (dose: 320.0 mg/kg/injection, schedule: Q01DX009 (ip), vehicle: saline with Tween-80): 111 % of control
